Experimental data published in ChEMBL document CHEMBL3992491, “Discovery, structure-activity relationship studies, and anti-nociceptive effects of N-(1,2,3,4-tetrahydro-1-isoquinolinylmethyl)benzamides as novel opioid receptor agonists” (Eur J Med Chem, 2017).
Activity calls are given as the source filed them. The rule behind the calls is not given here.

Biological target: T1, Mu-type opioid receptor (Homo sapiens, UniProt P35372)
Test: Displacement of [3H]naloxone from recombinant human MOR expressed in HEK cell membranes incubated for 60 mins
Conditions: not given

T1 sequence (P35372 whole entry): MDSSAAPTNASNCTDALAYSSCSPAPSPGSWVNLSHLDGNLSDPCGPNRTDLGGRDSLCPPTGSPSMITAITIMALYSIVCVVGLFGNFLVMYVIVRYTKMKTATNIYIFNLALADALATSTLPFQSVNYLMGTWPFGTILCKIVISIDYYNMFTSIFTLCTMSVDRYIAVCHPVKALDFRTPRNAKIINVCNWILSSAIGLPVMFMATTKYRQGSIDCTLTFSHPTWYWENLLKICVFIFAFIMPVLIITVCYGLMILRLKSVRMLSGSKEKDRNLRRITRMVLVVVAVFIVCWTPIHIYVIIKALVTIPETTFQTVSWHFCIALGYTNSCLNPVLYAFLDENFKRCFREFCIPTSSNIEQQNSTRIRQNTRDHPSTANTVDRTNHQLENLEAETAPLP

Row | Compound | Ki
1 | CN1CCc2ccccc2C1CNC(=O)c1ccc(Cl)c(Cl)c1 (configuration not stated) | 6.91 nM
2 | O=C(NCC1NCCc2ccccc21)c1ccc(Cl)c(Cl)c1 (configuration not stated) | 54.3 nM
3 | Cc1ccc(C(=O)NCC2NCCc3ccccc32)cc1 (configuration not stated) | 6.47 nM
4 | Cc1ccc(C(=O)NCC2c3ccccc3CCN2C)cc1 (configuration not stated) | 5.28 nM
5 | CCc1ccc(C(=O)NCC2NCCc3ccccc32)cc1 (configuration not stated) | 4.65 nM
6 | CCc1ccc(C(=O)NCC2c3ccccc3CCN2C)cc1 (configuration not stated) | 2.27 nM
7 | Cc1ccc(C(=O)NCC2c3ccccc3CCN2C)cc1C (configuration not stated) | 30.8 nM
8 | Cc1ccc(C(=O)NCC2NCCc3ccccc32)cc1C (configuration not stated) | 36.4 nM

Biological target: T1, Mu-type opioid receptor
Test: Agonist activity at human MOR expressed in HEK293 cells assessed as inhibition of forskolin-induced adenylyl cyclase-mediated cAMP accumulation after 30 mins by HTRF assay
Format: functional, cell-based
Conditions: not given

Row | Compound | IC50 | Imax
9 | O=C(NCC1NCCc2ccccc21)c1cccc(Cl)c1 (configuration not stated) | 2030 nM | 78.2%
10 | CN1CCc2ccccc2C1CNC(=O)c1ccc(Cl)c(Cl)c1 (configuration not stated) | 50 nM | 69.5%
11 | O=C(NCC1NCCc2ccccc21)c1ccc(Cl)c(Cl)c1 (configuration not stated) | 230 nM | 
12 | O=C(NCC1NCCc2ccccc21)c1ccc(Cl)cc1 (configuration not stated) | 220 nM | 
13 | O=C(NCC1NCCc2ccccc21)c1ccc(F)cc1 (configuration not stated) | 830 nM | 
14 | Cc1ccc(C(=O)NCC2c3ccccc3CCN2CCCl)cc1 (configuration not stated) | 200 nM | 67.8%
15 | Cc1ccc(C(=O)NCC2c3ccccc3CCN2C)cc1 (configuration not stated) | 650 nM | 72.4%
16 | CCCCN1CCc2ccccc2C1CNC(=O)c1ccc(C)cc1 (configuration not stated) | 1330 nM | 69.3%
17 | Cc1cccc(C(=O)NCC2NCCc3ccccc32)c1 (configuration not stated) | 1270 nM | 68.3%
18 | COc1ccc(C(=O)NCC2NCCc3ccccc32)cc1 (configuration not stated) | 1580 nM | 
19 | C[C@@H](NC(=O)[C@@H](N)Cc1ccc(O)cc1)C(=O)NCC(=O)N(C)[C@@H](Cc1ccccc1)C(=O)NCCO |  | 82.4%
20 | CCc1ccc(C(=O)NCC2NCCc3ccccc32)cc1 (configuration not stated) | 310 nM | 63.9%
21 | CCc1ccc(C(=O)NCC2c3ccccc3CCN2C)cc1 (configuration not stated) | 3280 nM | 61.9%
22 | Cc1ccc(C(=O)NCC2c3ccccc3CCN2C)cc1C (configuration not stated) | 80 nM | 69.3%
23 | O=C(NCC1NCCc2ccccc21)c1ccc(OC(F)(F)F)cc1 (configuration not stated) | 1220 nM | 
24 | Cc1ccc(C(=O)NCC2NCCc3ccccc32)cc1C (configuration not stated) | 290 nM | 

Biological target: Delta-type opioid receptor (Homo sapiens, UniProt P41143)
Test: Agonist activity at human DOR expressed in HEK293 cells assessed as inhibition of forskolin-induced adenylyl cyclase-mediated cAMP accumulation after 30 mins by HTRF assay
Format: functional, cell-based
Conditions: not given

Chain of Delta-type opioid receptor (P41143 whole entry): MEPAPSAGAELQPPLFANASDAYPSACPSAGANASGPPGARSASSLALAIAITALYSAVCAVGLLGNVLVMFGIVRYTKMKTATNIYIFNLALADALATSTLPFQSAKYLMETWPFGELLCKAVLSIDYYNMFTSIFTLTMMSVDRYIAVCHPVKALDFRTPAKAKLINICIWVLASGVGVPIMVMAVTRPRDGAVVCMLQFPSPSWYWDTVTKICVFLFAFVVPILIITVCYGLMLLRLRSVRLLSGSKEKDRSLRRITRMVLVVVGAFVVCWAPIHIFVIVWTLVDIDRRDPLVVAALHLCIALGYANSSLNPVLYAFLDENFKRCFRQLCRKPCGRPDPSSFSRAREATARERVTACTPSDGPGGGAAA

Row | Compound | Imax
25 | O=C(NCC1NCCc2ccccc21)c1cccc(Cl)c1 (configuration not stated) | 21.1%
26 | O=C(NCC1NCCc2ccccc21)c1ccc(Cl)cc1 (configuration not stated) | 24.1%
27 | O=C(NCC1NCCc2ccccc21)c1ccc(F)cc1 (configuration not stated) | 22%
28 | CCc1ccc(C(=O)NCC2c3ccccc3CCN2C)cc1 (configuration not stated) | 22.1%
29 | O=C(NCC1NCCc2ccccc21)c1ccc(OC(F)(F)F)cc1 (configuration not stated) | 22.7%

Same assay, conditions: hek293

Row | Compound | IC50
30 | CN1CCc2ccccc2C1CNC(=O)c1ccc(Cl)c(Cl)c1 (configuration not stated) | Not Active
31 | O=C(NCC1NCCc2ccccc21)c1ccc(Cl)c(Cl)c1 (configuration not stated) | Not Active
32 | Cc1ccc(C(=O)NCC2c3ccccc3CCN2CCCl)cc1 (configuration not stated) | Not Active
33 | Cc1ccc(C(=O)NCC2c3ccccc3CCN2C)cc1 (configuration not stated) | Not Active
34 | CCCCN1CCc2ccccc2C1CNC(=O)c1ccc(C)cc1 (configuration not stated) | Not Active
35 | Cc1cccc(C(=O)NCC2NCCc3ccccc32)c1 (configuration not stated) | Not Active
36 | COc1ccc(C(=O)NCC2NCCc3ccccc32)cc1 (configuration not stated) | Not Active
37 | CCc1ccc(C(=O)NCC2NCCc3ccccc32)cc1 (configuration not stated) | Not Active
38 | Cc1ccc(C(=O)NCC2c3ccccc3CCN2C)cc1C (configuration not stated) | Not Active
39 | Cc1ccc(C(=O)NCC2NCCc3ccccc32)cc1C (configuration not stated) | Not Active

Same assay, conditions: read-out: IC50

Row | Compound | IC50
40 | O=C(NCC1NCCc2ccccc21)c1cccc(Cl)c1 (configuration not stated) | 170 nM
41 | O=C(NCC1NCCc2ccccc21)c1ccc(Cl)cc1 (configuration not stated) | 4180 nM
42 | O=C(NCC1NCCc2ccccc21)c1ccc(F)cc1 (configuration not stated) | 40 nM
43 | CCc1ccc(C(=O)NCC2c3ccccc3CCN2C)cc1 (configuration not stated) | 190 nM
44 | O=C(NCC1NCCc2ccccc21)c1ccc(OC(F)(F)F)cc1 (configuration not stated) | 40 nM

Biological target: T2, Kappa-type opioid receptor (Homo sapiens, UniProt P41145)
Test: Agonist activity at human KOR expressed in HEK293 cells assessed as inhibition of forskolin-induced adenylyl cyclase-mediated cAMP accumulation after 30 mins by HTRF assay
Format: functional, cell-based
Conditions: not given

T2 sequence (P41145 whole entry): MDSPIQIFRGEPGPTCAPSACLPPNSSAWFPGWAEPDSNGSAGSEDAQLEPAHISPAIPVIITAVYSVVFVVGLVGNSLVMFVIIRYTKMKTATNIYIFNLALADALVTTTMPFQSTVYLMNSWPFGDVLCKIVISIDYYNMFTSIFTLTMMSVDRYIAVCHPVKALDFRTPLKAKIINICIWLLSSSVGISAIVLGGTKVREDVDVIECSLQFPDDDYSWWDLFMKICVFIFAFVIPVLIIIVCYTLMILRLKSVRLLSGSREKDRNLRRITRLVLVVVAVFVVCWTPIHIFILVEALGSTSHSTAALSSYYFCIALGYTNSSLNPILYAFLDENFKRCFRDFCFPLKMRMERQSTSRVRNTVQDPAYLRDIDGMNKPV

Row | Compound | IC50 | Imax
45 | O=C(NCC1NCCc2ccccc21)c1cccc(Cl)c1 (configuration not stated) | 1120 nM | 26.9%
46 | CN1CCc2ccccc2C1CNC(=O)c1ccc(Cl)c(Cl)c1 (configuration not stated) | 440 nM | 28.3%
47 | O=C(NCC1NCCc2ccccc21)c1ccc(Cl)c(Cl)c1 (configuration not stated) | 810 nM | 27.5%
48 | O=C(NCC1NCCc2ccccc21)c1ccc(Cl)cc1 (configuration not stated) | 90 nM | 35.1%
49 | O=C(NCC1NCCc2ccccc21)c1ccc(F)cc1 (configuration not stated) | 18600 nM | 38.9%
50 | Cc1ccc(C(=O)NCC2c3ccccc3CCN2CCCl)cc1 (configuration not stated) | 2940 nM | 30%
51 | Cc1ccc(C(=O)NCC2c3ccccc3CCN2C)cc1 (configuration not stated) | 140 nM | 27.1%
52 | CCCCN1CCc2ccccc2C1CNC(=O)c1ccc(C)cc1 (configuration not stated) | 780 nM | 24.1%
53 | Cc1cccc(C(=O)NCC2NCCc3ccccc32)c1 (configuration not stated) | 140 nM | 26.6%
54 | COc1ccc(C(=O)NCC2NCCc3ccccc32)cc1 (configuration not stated) | 50 nM | 21.8%
55 | CCc1ccc(C(=O)NCC2NCCc3ccccc32)cc1 (configuration not stated) | 570 nM | 29%
56 | CCc1ccc(C(=O)NCC2c3ccccc3CCN2C)cc1 (configuration not stated) | 490 nM | 26.3%
57 | Cc1ccc(C(=O)NCC2c3ccccc3CCN2C)cc1C (configuration not stated) | 80 nM | 34.6%
58 | O=C(NCC1NCCc2ccccc21)c1ccc(OC(F)(F)F)cc1 (configuration not stated) | 260 nM | 38.2%
59 | Cc1ccc(C(=O)NCC2NCCc3ccccc32)cc1C (configuration not stated) | 8930 nM | 27%

Biological target: T1, Mu-type opioid receptor
Test: Agonist activity at myc-tagged MOR (unknown origin) expressed in mouse AtT-20 cells harboring GIRK1/GIRK2 channels assessed as stimulation of membrane potential hyperpolarization at 1 uM by FLIPR assay
Format: cell-based
Conditions: not given

Row | Compound | Activity
60 | CN1CCc2ccccc2C1CNC(=O)c1ccc(Cl)c(Cl)c1 (configuration not stated) | 20%
61 | Cc1ccc(C(=O)NCC2c3ccccc3CCN2C)cc1C (configuration not stated) | 20%

Biological target: T1, Mu-type opioid receptor
Test: Agonist activity at myc-tagged MOR (unknown origin) expressed in mouse AtT-20 cells harboring GIRK1/GIRK2 channels assessed as membrane potential hyperpolarization at 1 uM in presence of naloxone by FLIPR membrane potential
Format: cell-based
Conditions: not given

Row | Compound | Activity
62 | CN1CCc2ccccc2C1CNC(=O)c1ccc(Cl)c(Cl)c1 (configuration not stated) | inactive
63 | Cc1ccc(C(=O)NCC2c3ccccc3CCN2C)cc1C (configuration not stated) | inactive

Tested on: not listed separately
Test: Drug uptake in […] mouse plasma at 3 mg/kg, iv measured after 0.8 hrs by LC-MS/MS analysis
Format: ADME, organism-based
Conditions: not given

Row | Compound | concentration at 0.8 h
64 | CN1CCc2ccccc2C1CNC(=O)c1ccc(Cl)c(Cl)c1 (configuration not stated) | 2610 ng/mL
65 | O=C(NCC1c2ccccc2CCN1S(=O)(=O)c1ccc(Br)cc1OC(F)(F)F)C1CCCCC1 (configuration not stated) | 1290 ng/mL
66 | Cc1ccc(C(=O)NCC2c3ccccc3CCN2C)cc1C (configuration not stated) | 1460 ng/mL

Tested on: not listed separately
Test: Drug uptake in […] mouse brain at 3 mg/kg, iv measured after 0.8 hrs by LC-MS/MS analysis
Format: ADME, organism-based
Conditions: read-out: Drug uptake

Row | Compound | concentration at 0.8 h
67 | CN1CCc2ccccc2C1CNC(=O)c1ccc(Cl)c(Cl)c1 (configuration not stated) | 11700 ng/g
68 | O=C(NCC1c2ccccc2CCN1S(=O)(=O)c1ccc(Br)cc1OC(F)(F)F)C1CCCCC1 (configuration not stated) | 1440 ng/g
69 | Cc1ccc(C(=O)NCC2c3ccccc3CCN2C)cc1C (configuration not stated) | 7420 ng/g

Tested on: not listed separately
Test: Ratio of drug level in brain to plasma in […] mouse at 3 mg/kg, iv measured after 0.8 hrs
Format: ADME, organism-based
Conditions: read-out: BPR

Row | Compound | Kp at 0.8 h
70 | CN1CCc2ccccc2C1CNC(=O)c1ccc(Cl)c(Cl)c1 (configuration not stated) | 4.5
71 | O=C(NCC1c2ccccc2CCN1S(=O)(=O)c1ccc(Br)cc1OC(F)(F)F)C1CCCCC1 (configuration not stated) | 1.1
72 | Cc1ccc(C(=O)NCC2c3ccccc3CCN2C)cc1C (configuration not stated) | 5.1

Tested on: Mus musculus
Test: Antinociceptive activity in B6 mouse assessed as AUC of thermal withdrawal effect at 3 mg/kg, iv measured at every 10 mins for 1 hr by tail flick assay
Format: functional, organism-based
Conditions: not given

Row | Compound | AUC
73 | CN1CCc2ccccc2C1CNC(=O)c1ccc(Cl)c(Cl)c1 (configuration not stated) | 371 min.sec
74 | Cc1ccc(C(=O)NCC2c3ccccc3CCN2C)cc1C (configuration not stated) | 268 min.sec

Tested on: Mus musculus
Test: Antinociceptive activity in iv dosed B6 mouse assessed as increase in tail flick latency at 3 mg/kg, iv measured at every 10 mins for 1 hr
Format: functional
Conditions: not given

Row | Compound | ED50
75 | CN1CCc2ccccc2C1CNC(=O)c1ccc(Cl)c(Cl)c1 (configuration not stated) | 1.06 mg/kg

Tested on: Mus musculus
Test: Antinociceptive activity in iv dosed B6 mouse assessed as increase in tail flick latency at 3 mg/kg, iv measured at every 10 mins for 1 hr in presence of opioid antagonist naloxone
Format: functional, organism-based
Conditions: not given

Row | Compound | Activity
76 | CN1CCc2ccccc2C1CNC(=O)c1ccc(Cl)c(Cl)c1 (configuration not stated) | inactive
77 | Cc1ccc(C(=O)NCC2c3ccccc3CCN2C)cc1C (configuration not stated) | inactive

Biological target: T2, Kappa-type opioid receptor
Test: Agonist activity at human KOR expressed in HEK293 cells assessed as inhibition of forskolin-induced adenylyl cyclase-mediated cAMP accumulation at 1 uM after 30 mins in presence of KOR antagonist nor-binaltorphimine by HTRF assay
Format: functional, cell-based
Conditions: not given

Row | Compound | Activity
78 | CN1CCc2ccccc2C1CNC(=O)c1ccc(Cl)c(Cl)c1 (configuration not stated) | inactive
